This test has as its target T1, Androgen Receptor (Homo sapiens, UniProt P10275).
T1 construct: endogenous in cells; host or cells: VCaP cells
T1 sequence (P10275 1-920): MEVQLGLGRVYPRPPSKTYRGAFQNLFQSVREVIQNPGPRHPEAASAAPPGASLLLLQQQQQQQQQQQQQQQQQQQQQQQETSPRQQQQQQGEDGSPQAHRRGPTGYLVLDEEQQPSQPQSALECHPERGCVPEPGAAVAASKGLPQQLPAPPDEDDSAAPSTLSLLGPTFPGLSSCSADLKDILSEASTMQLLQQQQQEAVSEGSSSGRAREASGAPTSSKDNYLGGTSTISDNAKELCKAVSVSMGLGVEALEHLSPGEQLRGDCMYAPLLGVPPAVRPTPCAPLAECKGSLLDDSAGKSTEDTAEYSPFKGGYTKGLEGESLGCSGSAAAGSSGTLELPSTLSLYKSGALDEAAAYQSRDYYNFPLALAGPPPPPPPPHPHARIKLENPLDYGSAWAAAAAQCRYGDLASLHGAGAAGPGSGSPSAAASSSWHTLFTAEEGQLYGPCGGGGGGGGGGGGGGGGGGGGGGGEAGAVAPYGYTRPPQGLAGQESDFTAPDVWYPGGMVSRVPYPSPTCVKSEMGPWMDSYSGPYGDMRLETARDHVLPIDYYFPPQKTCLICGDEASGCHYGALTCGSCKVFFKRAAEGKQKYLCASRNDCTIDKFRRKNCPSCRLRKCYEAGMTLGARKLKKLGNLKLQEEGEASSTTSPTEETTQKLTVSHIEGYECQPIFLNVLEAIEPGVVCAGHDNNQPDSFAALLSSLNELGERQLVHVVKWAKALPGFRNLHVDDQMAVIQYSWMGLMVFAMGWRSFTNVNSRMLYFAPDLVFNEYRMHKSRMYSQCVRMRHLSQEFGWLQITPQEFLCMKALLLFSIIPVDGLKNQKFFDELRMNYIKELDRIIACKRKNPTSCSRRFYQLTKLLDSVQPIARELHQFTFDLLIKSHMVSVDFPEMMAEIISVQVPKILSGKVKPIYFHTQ
Description: Androgen Receptor ELISA assay (PathScan AR ELISA) in VCaP cells: AR degradation, Dmax and DC50. The class given is cell-based. Summed up:
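VCaP cells in phenol red-free RPMI with 5% charcoal-stripped FBS were grown at least 3 days, then given compound as 7 half-log doses in 0.1% DMSO with 0.1 nM R1881 for 24 h. Lysates went into a sandwich AR ELISA with TMB read at 450 nm.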
For orientation: ELISA stands for enzyme-linked immunosorbent assay.

The mark [1] stands for this setting: VCaP cells; Table 36; read-out: VCaP DC50.
The mark [2] stands for this setting: VCaP, VCaP cells; Table 36; read-out: VCaP Dmax (%).

Where two headings read alike, the source gives them in different places. Some results are limits rather than exact numbers.

As a reminder, the DC50 is the concentration giving 50% degradation. For orientation: Dmax means the largest share of the target that was removed.

On to `Cc1ncsc1-c1ccc([C@H](C)NC(=O)[C@@H]2C[C@@H](O)CN2C(=O)[C@@H](c2cc(CCCN3CCN(c4ccc(C(=O)N[C@H]5C(C)(C)[C@H](Oc6ccc(C#N)c(Cl)c6)C5(C)C)cn4)CC3)no2)C(C)C)cc1` [Example 819, N-((1r,3r)-3-(3-chloro-4-cyanophenoxy)-2,2,4,4-tetramethylcyclobutyl)-6-(4-(3-(5-((R)-1-((2S, 4R)-4-hydroxy-2-(((S)-1-(4-(4-methylthiazol-5-yl)phenyl)ethyl)carbamoyl)pyrrolidin-1-yl)-3-methyl-1-oxobutan-2-yl)isoxazol-3-yl)propyl)piperazin-1-yl) nicotinamide], for which, under setting [1], the 50% degradation concentration (DC50) is less than 50 nM. The greatest degradation seen (Dmax) under setting [2] was greater than 71%.

With `Cc1ncsc1-c1ccc([C@H](CO)NC(=O)[C@@H]2C[C@@H](O)CN2C(=O)[C@@H](NC(=O)CN2CCN(CCCc3ccc(C(=O)N[C@H]4C(C)(C)[C@H](Oc5ccc(C#N)c(Cl)c5)C4(C)C)cc3)CC2)C(C)(C)C)cc1` [Example 820, (2S,4R)-1-((S)-2-(2-(4-(3-(4-(((1r,3r)-3-(3-chloro-4-cyanophenoxy)-2,2,4,4-tetramethylcyclobutyl)carbamoyl)phenyl)propyl)piperazin-1-yl)acetamido)-3,3-dimethylbutanoyl)-4-hydroxy-N-((R)-2-hydroxy-1-(4-(4-methylthiazol-5-yl)phenyl)ethyl) pyrrolidine-2-carboxamide], under setting [1], the half-maximal degradation concentration (DC50) is less than 50 nM. Moreover, the maximal degradation (Dmax) under setting [2] is greater than 71%.

As for `Cc1ncsc1-c1ccc([C@H](CO)NC(=O)[C@@H]2C[C@@H](O)CN2C(=O)[C@@H](NC(=O)COCCN2C3CCC2CN(c2ccc(C(=O)N[C@H]4C(C)(C)[C@H](Oc5ccc(C#N)c(Cl)c5)C4(C)C)cn2)C3)C(C)(C)C)cc1` [Example 821, N-((1r,3r)-3-(3-chloro-4-cyanophenoxy)-2,2,4,4-tetramethylcyclobutyl)-6-(8-(2-(2-(((S)-1-((2S, 4R)-4-hydroxy-2-(((R)-2-hydroxy-1-(4-(4-methylthiazol-5-yl)phenyl)ethyl)carbamoyl)pyrrolidin-1-yl)-3,3-dimethyl-1-oxobutan-2-yl)amino)-2-oxoethoxy)ethyl)-3,8-diazabicyclo [3.2.1]octan-3-yl) nicotinamide], the Dmax (VCaP, read-out: VCaP Dmax (%)) is greater than 71%. In addition, where the note is “read-out: VCaP DC50; VCaP cells; Table 36”, the half-maximal degradation concentration (DC50) is less than 50 nM.

As for `Cc1ncsc1-c1ccc([C@H](CO)NC(=O)C2C[C@@H](O)CN2C(=O)[C@@H](NC(=O)COCCN2CCCN(c3ccc(C(=O)NC4C(C)(C)C(Oc5ccc(C#N)c(Cl)c5)C4(C)C)cn3)CC2)C(C)(C)C)cc1` (stereo partly drawn) [Example 822, N-((1r,3r)-3-(3-chloro-4-cyanophenoxy)-2,2,4,4-tetramethylcyclobutyl)-6-(4-(2-(2-(((S)-1-((2S, 4R)-4-hydroxy-2-(((R)-2-hydroxy-1-(4-(4-methylthiazol-5-yl)phenyl)ethyl)carbamoyl)pyrrolidin-1-yl)-3,3-dimethyl-1-oxobutan-2-yl)amino)-2-oxoethoxy)ethyl)-1,4-diazepan-1-yl) nicotinamide], under setting [1], the DC50 is less than 50 nM. The Dmax under setting [2] is greater than 71%.

For `Cc1ncsc1-c1ccc([C@H](C)NC(=O)[C@@H]2C[C@@H](O)CN2C(=O)[C@@H](NC(=O)CN2CCN(CCCc3ccc(C(=O)N[C@H]4C(C)(C)[C@H](Oc5ccc(C#N)c(Cl)c5)C4(C)C)cc3)[C@@H](CO)C2)C(C)(C)C)cc1` [Example 823, (2S,4R)-1-((S)-2-(2-((R)-4-(3-(4-(((1r,3R)-3-(3-chloro-4-cyanophenoxy)-2,2,4,4-tetramethylcyclobutyl)carbamoyl)phenyl)propyl)-3-(hydroxymethyl)piperazin-1-yl)acetamido)-3,3-dimethylbutanoyl)-4-hydroxy-N-((S)-1-(4-(4-methylthiazol-5-yl)phenyl)ethyl) pyrrolidine-2-carboxamide], under setting [1], the half-maximal degradation concentration (DC50) was less than 50 nM. Moreover, the greatest degradation seen (Dmax) (VCaP, read-out: VCaP Dmax (%)) was greater than 71%.

Take `Cc1ncsc1-c1ccc([C@H](C)NC(=O)[C@@H]2C[C@@H](O)CN2C(=O)[C@@H](NC(=O)CN2CCN(CCCc3ccc(C(=O)N[C@H]4C(C)(C)[C@H](Oc5ccc(C#N)c(Cl)c5)C4(C)C)cc3)[C@H](CO)C2)C(C)(C)C)cc1` [Example 824, (2S,4R)-1-((S)-2-(2-((S)-4-(3-(4-(((1r,3S)-3-(3-chloro-4-cyanophenoxy)-2,2,4,4-tetramethylcyclobutyl)carbamoyl)phenyl)propyl)-3-(hydroxymethyl)piperazin-1-yl)acetamido)-3,3-dimethylbutanoyl)-4-hydroxy-N-((S)-1-(4-(4-methylthiazol-5-yl)phenyl)ethyl) pyrrolidine-2-carboxamide]: the DC50 under setting [1] is less than 50 nM. Further, for the setting “VCaP, read-out: VCaP Dmax (%)”, the Dmax is greater than 71%.

Take `Cc1ncsc1-c1ccc([C@H](C)NC(=O)[C@@H]2C[C@@H](O)CN2C(=O)[C@@H](NC(=O)CN2CCC(CN3CCN(c4ccc(C(=O)N[C@H]5C(C)(C)[C@H](Oc6ccc(C#N)c(Cl)c6)C5(C)C)cn4)CC3)CC2)C(C)(C)C)cc1` [Example 825, N-((1r,3r)-3-(3-chloro-4-cyanophenoxy)-2,2,4,4-tetramethylcyclobutyl)-6-(4-((1-(2-(((S)-1-((2S,4R)-4-hydroxy-2-(((S)-1-(4-(4-methylthiazol-5-yl)phenyl)ethyl)carbamoyl)pyrrolidin-1-yl)-3,3-dimethyl-1-oxobutan-2-yl)amino)-2-oxoethyl)piperidin-4-yl)methyl)piperazin-1-yl)nicotinamide]: under setting [1], the DC50 is less than 50 nM. Also, under “VCaP, read-out: VCaP Dmax (%)”, the greatest degradation seen (Dmax) is greater than 71%.

Turning to `Cc1ncsc1-c1ccc([C@H](CO)NC(=O)[C@@H]2C[C@@H](O)CN2C(=O)[C@@H](NC(=O)COCCN2[C@H](C)CN(c3ccc(C(=O)N[C@H]4C(C)(C)[C@H](Oc5ccc(C#N)c(Cl)c5)C4(C)C)cn3)C[C@@H]2C)C(C)(C)C)cc1` [Example 826, N-((1r,3R)-3-(3-chloro-4-cyanophenoxy)-2,2,4,4-tetramethylcyclobutyl)-6-((3S,5R)-4-(2-(2-(((S)-1-((2S,4R)-4-hydroxy-2-(((R)-2-hydroxy-1-(4-(4-methylthiazol-5-yl)phenyl)ethyl)carbamoyl)pyrrolidin-1-yl)-3,3-dimethyl-1-oxobutan-2-yl)amino)-2-oxoethoxy)ethyl)-3,5-dimethylpiperazin-1-yl)nicotinamide], the 50% degradation concentration (DC50) under setting [1] is less than 50 nM. The Dmax (VCaP, read-out: VCaP Dmax (%), VCaP cells; Table 36) was greater than 71%.

With `Cc1ncsc1-c1ccc([C@H](C)NC(=O)C2C[C@@H](O)CN2C(=O)C(NC(=O)CN2CCC(CCN3CCN(c4ccc(C(=O)NC5C(C)(C)C(Oc6ccc(C#N)c(Cl)c6)C5(C)C)cn4)CC3)CC2)C(C)(C)C)cc1` (stereo partly drawn) [Example 827, N-((1r,3r)-3-(3-chloro-4-cyanophenoxy)-2,2,4,4-tetramethylcyclobutyl)-6-(4-(2-(1-(2-(((S)-1-((2S,4R)-4-hydroxy-2-(((S)-1-(4-(4-methylthiazol-5-yl)phenyl)ethyl)carbamoyl)pyrrolidin-1-yl)-3,3-dimethyl-1-oxobutan-2-yl)amino)-2-oxoethyl)piperidin-4-yl)ethyl)piperazin-1-yl)nicotinamide], under setting [1], the 50% degradation concentration (DC50) is less than 50 nM. Further, under setting [2], the Dmax was greater than 71%.

(Values after patent US11427548B2 (Arvinas Operations, Inc., priority 2015, dated 2022).)
